According to the supplement of paper PMC11061612:

Tests used:
Assay in all cases: combination Emax (second highest fraction inhibited in the dose matrix, 72 h); higher = more inhibition; extreme values may be limits of the assay
A172 (Glioblastoma) = tested on: A172 (Glioblastoma)
Summary of the method: (§1)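 Cell lines grown in DMEM/F12 or RPMI with 10% FBS were plated in 1536-well plates and held 24 hours at 37°C, 5% CO2 before 72 hours of exposure to two-drug dose matrices, with DMSO typically at 0.2%. CellTiter-Glo 2.0 luminescence gave viability, which was converted to inhibition. Vehicle wells were set to 0 and blank wells to 1. Combination Emax is the second-highest inhibition in the matrix, and Bliss excess is the observed combination effect minus the expected EA + EB − EA·EB, where EA and EB are the single-agent effects.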

CS1 (Chondrosarcoma) = tested on: CS1 (Chondrosarcoma)
Summary of the method: as §1

[1] = tested on: EKVX (Non-Small Cell Lung Carcinoma)
Summary of the method: as §1

[2] = tested on: GDM-1 (Acute Myeloid Leukemia)
Summary of the method: as §1

[3] = tested on: HCC-827 (Lung Adenocarcinoma)
Summary of the method: as §1

[4] = tested on: HCC1143 (Breast Carcinoma)
Summary of the method: as §1

HuO9 (Osteosarcoma) = tested on: HuO9 (Osteosarcoma)
Summary of the method: as §1

[5] = tested on: JHH-6 (Hepatocellular Carcinoma)
Summary of the method: as §1

[6] = tested on: KG-1 (Acute Myeloid Leukemia)
Summary of the method: as §1

MCF7 (Breast Carcinoma) = tested on: MCF7 (Breast Carcinoma)
Summary of the method: as §1

[7] = tested on: MEG-01 (Chronic Myelogenous Leukemia)
Summary of the method: as §1

[8] = tested on: MES-SA (Other Solid Carcinomas)
Summary of the method: as §1

[9] = tested on: SK-LMS-1 (Other Solid Carcinomas)
Summary of the method: as §1

[10] = tested on: SKN-3 (Head and Neck Carcinoma)
Summary of the method: as §1

[11] = tested on: SNG-M (Endometrial Carcinoma)
Summary of the method: as §1

[12] = tested on: SNU-61 (Colorectal Carcinoma)
Summary of the method: as §1

[13] = tested on: SW48 (Colorectal Carcinoma)
Summary of the method: as §1

Saos-2 (Osteosarcoma) = tested on: Saos-2 (Osteosarcoma)
Summary of the method: as §1

[14] = tested on: TYK-nu (Ovarian Carcinoma)
Summary of the method: as §1

[15] = tested on: YT (Other Blood Carcinomas)
Summary of the method: as §1

Compound	combination Emax (A172 (Glioblastoma))	combination Emax (CS1 (Chondrosarcoma))	combination Emax [1]	combination Emax [2]	combination Emax [3]	combination Emax [4]	combination Emax (HuO9 (Osteosarcoma))	combination Emax [5]	combination Emax [6]	combination Emax (MCF7 (Breast Carcinoma))	combination Emax [7]	combination Emax [8]	combination Emax [9]	combination Emax [10]	combination Emax [11]	combination Emax [12]	combination Emax [13]	combination Emax (Saos-2 (Osteosarcoma))	combination Emax [14]	combination Emax [15]
CC1(C)CCC(CN2CCN(c3ccc(C(=O)NS(=O)(=O)c4ccc(NCC5CCOCC5)c([N+](=O)[O-])c4)c(Oc4cnc5[nH]ccc5c4)c3)CC2)=C(c2ccc(Cl)cc2)C1 [Venetoclax] + C=CCn1c(=O)c2cnc(Nc3ccc(N4CCN(C)CC4)cc3)nc2n1-c1cccc(C(C)(C)O)n1 [AZD1775] (first compound max 1 µM, partner max 1 µM)	0.315	0.682	0.172	1	0.413	0.548	0.759	0.296	0.913	0.452	0.913	0.787	0.61	0.402	0.729	0.373	0.809	0.818	0.681	0.928
CC1(C)CCC(CN2CCN(c3ccc(C(=O)NS(=O)(=O)c4ccc(NCC5CCOCC5)c([N+](=O)[O-])c4)c(Oc4cnc5[nH]ccc5c4)c3)CC2)=C(c2ccc(Cl)cc2)C1 [Venetoclax] + CCN(CCO)CCCOc1ccc2c(Nc3cc(CC(=O)Nc4cccc(F)c4)[nH]n3)ncnc2c1 [AZD2811] (first compound max 1 µM, 7x7, partner max 1 µM)	0.423	0.434	0.178	0.996	0.254	0.318	0.336	0.193	0.84	0.31	0.799	0.408	0.229	0.19	0.278	0.168	0.958	0.648	0.247	0.344
CC1(C)CCC(CN2CCN(c3ccc(C(=O)NS(=O)(=O)c4ccc(NCC5CCOCC5)c([N+](=O)[O-])c4)c(Oc4cnc5[nH]ccc5c4)c3)CC2)=C(c2ccc(Cl)cc2)C1 [Venetoclax] + CN(C)CCCOc1ccc(-c2ccc3ncc4c(c3c2)n(C2CCOCC2)c(=O)n4C)cn1 [AZD0156] (first compound max 1 µM, 7x7, partner max 1 µM)	0.238	0.56	0.22	0.679	0.26	0.232	0.343	0.212	0.595	0.242	0.782	0.138	0.5	0.134	0.127	0.182	0.607	0.42	0.174	0.475
CC1(C)CCC(CN2CCN(c3ccc(C(=O)NS(=O)(=O)c4ccc(NCC5CCOCC5)c([N+](=O)[O-])c4)c(Oc4cnc5[nH]ccc5c4)c3)CC2)=C(c2ccc(Cl)cc2)C1 [Venetoclax] + COc1cc(Nc2ncc3c(n2)-c2ccc(Cl)cc2C(c2c(F)cccc2OC)=NC3)ccc1C(=O)O [Alisertib] (first compound max 1 µM, 7x7, partner max 10 µM)	0.595	0.598	0.646	0.98	0.457	0.469	0.682	0.301	1	0.411	0.817	0.671	0.579	0.374	0.752	0.263	0.887	0.682	0.521	0.555
CC1(C)CCC(CN2CCN(c3ccc(C(=O)NS(=O)(=O)c4ccc(NCC5CCOCC5)c([N+](=O)[O-])c4)c(Oc4cnc5[nH]ccc5c4)c3)CC2)=C(c2ccc(Cl)cc2)C1 [Venetoclax] + C[C@@H]1COCCN1C2=NC(=NC(=C2)C3(CC3)[S@](=N)(=O)C)C4=C5C=CNC5=NC=C4 [AZD6738] (first compound max 1 µM, 7x7, partner max 10 µM)	0.595	0.701	0.214	0.946	0.33	0.821	0.814	0.459	0.917	0.705	0.883	0.671	0.548	0.576	0.894	0.43	0.752	0.584	0.722	0.852
CC1(C)CCC(CN2CCN(c3ccc(C(=O)NS(=O)(=O)c4ccc(NCC5CCOCC5)c([N+](=O)[O-])c4)c(Oc4cnc5[nH]ccc5c4)c3)CC2)=C(c2ccc(Cl)cc2)C1 [Venetoclax] + C[C@@H](Nc1cc(F)cc(F)c1)c1cc(C(=O)N(C)C)cc2c(=O)cc(N3CCOCC3)oc12 [AZD8186] (first compound max 1 µM, 7x7, partner max 3 µM)	0.171	0.415	0.367	0.934	0.254	0.246	0.468	0.193	0.508	0.255	0.646	0.168	0.412	0.148	0.655	0.103	0.275	0.34	0.495	0.631
CC1(C)CCC(CN2CCN(c3ccc(C(=O)NS(=O)(=O)c4ccc(NCC5CCOCC5)c([N+](=O)[O-])c4)c(Oc4cnc5[nH]ccc5c4)c3)CC2)=C(c2ccc(Cl)cc2)C1 [Venetoclax] + Cc1cc2ncnn2cc1Nc1ncc2c(n1)n(C1CCOCC1)c(=O)n2C [AZD7648] (first compound max 1 µM, 7x7, partner max 10 µM)	0.334	0.297	0.161	0.842	0.292	0.253	0.426	0.212	0.651	0.31	0.737	0.302	0.307	0.0976	0.131	0.154	0.369	0.325	0.36	0.732
CC1(C)CCC(CN2CCN(c3ccc(C(=O)NS(=O)(=O)c4ccc(NCC5CCOCC5)c([N+](=O)[O-])c4)c(Oc4cnc5[nH]ccc5c4)c3)CC2)=C(c2ccc(Cl)cc2)C1 [Venetoclax] + Cn1cnc2c(F)c(Nc3ccc(Br)cc3Cl)c(C(=O)NOCCO)cc21 [Selumetinib] (first compound max 1 µM, 7x7, partner max 3 µM)	0.206	0.278	0.343	0.735	0.184	0.275	0.177	0.222	0.726	0.104	0.868	0.138	0.203	0.286	0.2	0.351	0.52	0.299	0.464	0.429
